According to PubChem BioAssay AID2060616 (Molecular Pharmacology Branch, DTP, NCI, 2025):

Test system: 377384-186-R-J1-PDC complex spheroid viability
Experiment: Anticancer human tumor 377384-186-R-J1-PDC patient-derived pancreatic carcinoma cell line growth inhibition [CLK]
Conditions: for IC50: curve of first compound; for viability, T/C: stronger effect = lower value
Method in brief: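 Patient-derived tumor cells grown as complex spheroids with HUVEC endothelial cells and mesenchymal stem cells, treated with drug combinations. Concentrations descend in half-log steps from near clinical Cmax, or from 10 microM if Cmax unknown.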

[1] = second compound 0.0316 µM, first compound 0.0316 µM
[2] = second compound 0.0316 µM, first compound 0.1 µM
[3] = second compound 0.0316 µM, first compound 0.316 µM
[4] = second compound 0.0316 µM, first compound 1 µM
[5] = second compound 0.0316 µM, first compound 3.16 µM
[6] = second compound 0.0316 µM, first compound 10 µM
[7] = second compound 0.1 µM, first compound 0.0316 µM
[8] = second compound 0.1 µM, first compound 0.1 µM
[9] = second compound 0.1 µM, first compound 0.316 µM
[10] = second compound 0.1 µM, first compound 1 µM
[11] = second compound 0.1 µM, first compound 3.16 µM
[12] = second compound 0.1 µM, first compound 10 µM
[13] = second compound 0.316 µM, first compound 0.0316 µM
[14] = second compound 0.316 µM, first compound 0.1 µM
[15] = second compound 0.316 µM, first compound 0.316 µM
[16] = second compound 0.316 µM, first compound 1 µM
[17] = second compound 0.316 µM, first compound 3.16 µM
[18] = second compound 0.316 µM, first compound 10 µM
[19] = second compound 1 µM, first compound 0.0316 µM
[20] = second compound 1 µM, first compound 0.1 µM
[21] = second compound 1 µM, first compound 0.316 µM
[22] = second compound 1 µM, first compound 1 µM
[23] = second compound 1 µM, first compound 3.16 µM
[24] = second compound 1 µM, first compound 10 µM
[25] = second compound 3.16 µM, first compound 0.0316 µM
[26] = second compound 3.16 µM, first compound 0.1 µM
[27] = second compound 3.16 µM, first compound 0.316 µM
[28] = second compound 3.16 µM, first compound 1 µM
[29] = second compound 3.16 µM, first compound 3.16 µM
[30] = second compound 3.16 µM, first compound 10 µM
[31] = second compound 10 µM, first compound 0.0316 µM
[32] = second compound 10 µM, first compound 0.1 µM
[33] = second compound 10 µM, first compound 0.316 µM
[34] = second compound 10 µM, first compound 1 µM
[35] = second compound 10 µM, first compound 3.16 µM
[36] = second compound 10 µM, first compound 10 µM
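Also: spheroids exposed to agents for 7 days before reading.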
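For viability, T/C in this document: luminescence signal used as a stand-in for viable cells.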

C#Cc1c(F)ccc2cc(O)cc(-c3ncc4c(N5CC6CCC(C5)N6)nc(OCC56CCCN5CC(F)C6)nc4c3F)c12 (stereo unspecified) + CN1CCN(c2cc(C(=O)Nc3cc4cc(-c5cnn(C)c5)ccc4cn3)ccn2)CC1
IC50 (second compound 0.0316 µM): < 31.6 nM | IC50 (second compound 0.1 µM): < 31.6 nM | IC50 (second compound 0.316 µM): < 31.6 nM | IC50 (second compound 1 µM): < 31.6 nM | IC50 (second compound 3.16 µM): < 31.6 nM | IC50 (second compound 10 µM): < 31.6 nM | viability, T/C [1]: 23.7% | viability, T/C [2]: 9.22% | viability, T/C [3]: 5.47% | viability, T/C [4]: 3.59% | viability, T/C [5]: 1.91% | viability, T/C [6]: 2.78% | viability, T/C [7]: 17.5% | viability, T/C [8]: 9.27% | viability, T/C [9]: 3.82% | viability, T/C [10]: 2.55% | viability, T/C [11]: 1.86% | viability, T/C [12]: 1.3% | viability, T/C [13]: 6.63% | viability, T/C [14]: 2.9% | viability, T/C [15]: 2.56% | viability, T/C [16]: 1.32% | viability, T/C [17]: 1.33% | viability, T/C [18]: 0.82% | viability, T/C [19]: 0.45% | viability, T/C [20]: 0.37% | viability, T/C [21]: 0.27% | viability, T/C [22]: 0.32% | viability, T/C [23]: 0.34% | viability, T/C [24]: 0.4% | viability, T/C [25]: 0.26% | viability, T/C [26]: 0.6% | viability, T/C [27]: 0.24% | viability, T/C [28]: 0.33% | viability, T/C [29]: 0.38% | viability, T/C [30]: 0.56% | viability, T/C [31]: 0.1% | viability, T/C [32]: 0.21% | viability, T/C [33]: 0.19% | viability, T/C [34]: 0.33% | viability, T/C [35]: 0.22% | viability, T/C [36]: 0.49%

CC(CO)NC(=O)c1cc(-c2ccc(Cl)cc2)nn(-c2cnn(C)c2)c1=O (stereo unspecified) + CN1CCN(c2cc(C(=O)Nc3cc4cc(-c5cnn(C)c5)ccc4cn3)ccn2)CC1
IC50 (second compound 0.0316 µM): > 10000 nM | IC50 (second compound 0.1 µM): > 10000 nM | IC50 (second compound 0.316 µM): < 31.6 nM | IC50 (second compound 1 µM): < 31.6 nM | IC50 (second compound 3.16 µM): < 31.6 nM | IC50 (second compound 10 µM): < 31.6 nM | viability, T/C [1]: 104% | viability, T/C [2]: 118% | viability, T/C [3]: 101% | viability, T/C [4]: 93.5% | viability, T/C [5]: 82.3% | viability, T/C [6]: 51.5% | viability, T/C [7]: 107% | viability, T/C [8]: 105% | viability, T/C [9]: 85.5% | viability, T/C [10]: 101% | viability, T/C [11]: 77.7% | viability, T/C [12]: 57% | viability, T/C [13]: 33.6% | viability, T/C [14]: 30.6% | viability, T/C [15]: 27.8% | viability, T/C [16]: 31.3% | viability, T/C [17]: 31.9% | viability, T/C [18]: 29.1% | viability, T/C [19]: 1.54% | viability, T/C [20]: 1.76% | viability, T/C [21]: 1.91% | viability, T/C [22]: 1.77% | viability, T/C [23]: 2.49% | viability, T/C [24]: 2.71% | viability, T/C [25]: 0.34% | viability, T/C [26]: 1% | viability, T/C [27]: 0.42% | viability, T/C [28]: 0.4% | viability, T/C [29]: 0.66% | viability, T/C [30]: 0.95% | viability, T/C [31]: 0.55% | viability, T/C [32]: 0.43% | viability, T/C [33]: 0.69% | viability, T/C [34]: 0.78% | viability, T/C [35]: 0.94% | viability, T/C [36]: 0.42%

COc1c(OCCCN2CCOCC2)ccc2c3n(c(=NC(=O)c4cnc(N)nc4)nc12)CCN3 + CNC(=O)c1ccc(Nc2nc(OC3CCCC3)c3c(-c4ccc5nc(C)oc5c4)c[nH]c3n2)c(OC)c1
IC50 (second compound 0.0316 µM): 29.9 nM | IC50 (second compound 0.1 µM): 12.2 nM | IC50 (second compound 0.316 µM): < 3.16 nM | IC50 (second compound 1 µM): < 3.16 nM | IC50 (second compound 3.16 µM): < 3.16 nM | IC50 (second compound 10 µM): < 3.16 nM | viability, T/C (second compound 0.0316 µM, first compound 0.00316 µM): 74.8% | viability, T/C (second compound 0.0316 µM, first compound 0.01 µM): 66.1% | viability, T/C [1]: 47.6% | viability, T/C [2]: 33.9% | viability, T/C [3]: 23.1% | viability, T/C [4]: 14% | viability, T/C (second compound 0.1 µM, first compound 0.00316 µM): 63.3% | viability, T/C (second compound 0.1 µM, first compound 0.01 µM): 54.5% | viability, T/C [7]: 35.7% | viability, T/C [8]: 27.5% | viability, T/C [9]: 17.4% | viability, T/C [10]: 12% | viability, T/C (second compound 0.316 µM, first compound 0.00316 µM): 19.1% | viability, T/C (second compound 0.316 µM, first compound 0.01 µM): 19.1% | viability, T/C [13]: 14.5% | viability, T/C [14]: 14% | viability, T/C [15]: 11.6% | viability, T/C [16]: 10.4% | viability, T/C (second compound 1 µM, first compound 0.00316 µM): 19% | viability, T/C (second compound 1 µM, first compound 0.01 µM): 16.6% | viability, T/C [19]: 16.8% | viability, T/C [20]: 12.2% | viability, T/C [21]: 10.7% | viability, T/C [22]: 9.69% | viability, T/C (second compound 3.16 µM, first compound 0.00316 µM): 19.9% | viability, T/C (second compound 3.16 µM, first compound 0.01 µM): 17.6% | viability, T/C [25]: 13.6% | viability, T/C [26]: 12.9% | viability, T/C [27]: 9.91% | viability, T/C [28]: 9.78% | viability, T/C (second compound 10 µM, first compound 0.00316 µM): 21.4% | viability, T/C (second compound 10 µM, first compound 0.01 µM): 17.7% | viability, T/C [31]: 14.4% | viability, T/C [32]: 11.6% | viability, T/C [33]: 10.8% | viability, T/C [34]: 9.14%
